From PubChem BioAssay AID248 (DTP/NCI, 2004)
Inconclusive results and toxic doses are left out. Cut-off read from the data, not from the text of the source: active = T/C of 150% or more; inactive = T/C below 125%.

System: L1210 leukemia ip in BDF1 mice, survival T/C
Experiment: NCI In Vivo Anticancer Drug Screen. Data for tumor model L1210 Leukemia (intraperitoneal) in B6D2F1 (BDF1) mice
Conditions: endpoint: mean survival time, higher = longer survival
Protocol: The antitumor activity of compounds was measured in mice bearing transplantable tumors. Survival or tumor size were measured and the results are expressed as the measurement made in the treated group (T) divided by the measurement made in the vehicle treated control group (C). The tumor model used in this assay is L1210 Leukemia (intraperitoneal) in B6D2F1 (BDF1) mice

[1] = dose: 100.0 mg/kg/injection, schedule: Q04DX003 (ip), vehicle: saline with Tween-80
[2] = dose: 200.0 mg/kg/injection, schedule: Q04DX003 (ip), vehicle: saline with Tween-80
[3] = dose: 400.0 mg/kg/injection, schedule: Q04DX003 (ip), vehicle: saline with Tween-80
[4] = dose: 100.0 mg/kg/injection, schedule: Q01DX009 (ip), vehicle: saline with Tween-80
[5] = dose: 200.0 mg/kg/injection, schedule: Q01DX009 (ip), vehicle: saline with Tween-80
[6] = dose: 50.0 mg/kg/injection, schedule: Q04DX003 (ip), vehicle: saline with Tween-80
[7] = dose: 200.0 mg/kg/injection, schedule: Q01DX009 (ip), vehicle: Klucel (hydroxypropylcellulose) (HPC)
[8] = dose: 400.0 mg/kg/injection, schedule: Q01DX009 (ip), vehicle: Klucel (hydroxypropylcellulose) (HPC)

Measured: T/C

Cc1ncc(CO)c(C)c1O
inactive: dose: 0.03 mg/kg/injection, schedule: Q02DX010 (ip), vehicle: saline 118 % of control | dose: 0.04 mg/kg/injection, schedule: Q02DX010 (ip), vehicle: saline 118 % of control | dose: 0.07 mg/kg/injection, schedule: Q02DX010 (ip), vehicle: saline 123 % of control | dose: 0.15 mg/kg/injection, schedule: Q02DX010 (ip), vehicle: saline 86 % of control | dose: 0.23 mg/kg/injection, schedule: Q02DX010 (ip), vehicle: saline 86 % of control | dose: 12.5 mg/kg/injection, schedule: Q01DX009 (ip), vehicle: saline 98 % of control | dose: 22.81 mg/kg/injection, schedule: Q01DX Z (ip), vehicle: carboxymethylcellulose (CMC) 102 % of control | dose: 25.0 mg/kg/injection, schedule: Q01DX009 (ip), vehicle: saline 95 % of control | dose: 45.62 mg/kg/injection, schedule: Q01DX Z (ip), vehicle: carboxymethylcellulose (CMC) 101 % of control | dose: 50.0 mg/kg/injection, schedule: Q01DX009 (ip), vehicle: saline 103 % of control | dose: 91.25 mg/kg/injection, schedule: Q01DX Z (ip), vehicle: carboxymethylcellulose (CMC) 105 % of control | dose: 100.0 mg/kg/injection, schedule: Q01DX009 (ip), vehicle: saline 102 % of control | dose: 182.3 mg/kg/injection, schedule: Q01DX Z (ip), vehicle: carboxymethylcellulose (CMC) 110 % of control | dose: 200.0 mg/kg/injection, schedule: Q01DX009 (ip), vehicle: saline 108 % of control

FC(F)(F)c1nn[nH]n1
inactive: [1] 101 % of control | [2] 108 % of control | [3] 103 % of control

CC(=O)Oc1cccc(C)c1
inactive: [4] 104 % of control | [5] 106 % of control

CCC(CO)NC(=O)Nc1cccc2ccccc12 (centres undefined)
inactive: [6] 105 % of control | [4] 102 % of control | [1] 105 % of control | [5] 96 % of control | [2] 100 % of control | dose: 400.0 mg/kg/injection, schedule: Q01DX009 (ip), vehicle: saline with Tween-80 96 % of control | [3] 94 % of control

O=C(CC1=CCCCC1)c1ccccc1
inactive: dose: 100.0 mg/kg/injection, schedule: Q01DX009 (ip), vehicle: Klucel (hydroxypropylcellulose) (HPC) 103 % of control | [7] 100 % of control | [8] 97 % of control

Cn1cnc(N)c1C(N)=S
inactive: dose: 100.0 mg/kg/injection, schedule: Q04DX003 (ip), vehicle: saline 100 % of control | [7] 98 % of control | dose: 200.0 mg/kg/injection, schedule: Q04DX003 (ip), vehicle: saline 92 % of control | [8] 92 % of control | dose: 400.0 mg/kg/injection, schedule: Q04DX003 (ip), vehicle: saline 104 % of control

CCCCC(C#N)C1CC=CC(C(=O)O)C1 (centres undefined)
inactive: dose: 100.0 mg/kg/injection, schedule: Q01DX001 (ip), vehicle: carboxymethylcellulose (CMC) 101 % of control | dose: 200.0 mg/kg/injection, schedule: Q01DX001 (ip), vehicle: carboxymethylcellulose (CMC) 92 % of control | dose: 400.0 mg/kg/injection, schedule: Q01DX001 (ip), vehicle: carboxymethylcellulose (CMC) 97 % of control

O=C(CCl)Nc1ncc([N+](=O)[O-])s1
inactive: dose: 12.5 mg/kg/injection, schedule: Q04DX003 (ip), vehicle: saline with Tween-80 94 % of control | dose: 25.0 mg/kg/injection, schedule: Q04DX003 (ip), vehicle: saline with Tween-80 91 % of control | [6] 87 % of control

CC1([CH2][Hg][I])COCC([CH2][Hg][I])O1 (centres undefined)
inactive: dose: 0.78 mg/kg/injection, schedule: Q01DX001 (ip), vehicle: acetone 105 % of control | dose: 0.78 mg/kg/injection, schedule: Q04DX003 (ip), vehicle: saline 98 % of control | dose: 1.56 mg/kg/injection, schedule: Q01DX001 (ip), vehicle: acetone 94 % of control | dose: 1.56 mg/kg/injection, schedule: Q04DX003 (ip), vehicle: saline 96 % of control | dose: 3.12 mg/kg/injection, schedule: Q01DX001 (ip), vehicle: acetone 94 % of control | dose: 3.12 mg/kg/injection, schedule: Q04DX003 (ip), vehicle: saline 98 % of control | dose: 4.6 mg/kg/injection, schedule: Q04DX003 (ip), vehicle: acetone 93 % of control | dose: 5.75 mg/kg/injection, schedule: Q01DX009 (ip), vehicle: acetone 107 % of control | dose: 7.0 mg/kg/injection, schedule: Q04DX003 (ip), vehicle: acetone 96 % of control | dose: 10.5 mg/kg/injection, schedule: Q04DX003 (ip), vehicle: acetone 95 % of control | dose: 11.5 mg/kg/injection, schedule: Q01DX009 (ip), vehicle: acetone 107 % of control | dose: 15.0 mg/kg/injection, schedule: Q04DX003 (ip), vehicle: saline 110 % of control | dose: 23.0 mg/kg/injection, schedule: Q01DX009 (ip), vehicle: acetone 111 % of control | dose: 23.0 mg/kg/injection, schedule: Q04DX003 (ip), vehicle: saline 110 % of control
